These results are taken from the supplement of paper PMC11061612.

Common to all, as to assay: Bliss excess, mean over the matrix (fraction); higher = more synergy
In assay [1] the test system is SBC-5 (Small Cell Lung Carcinoma). A digest of the protocol:
(§1)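 After 24 hours at 37°C and 5% CO2 in 1536-well plates, cells in DMEM/F12 or RPMI plus 10% FBS received two-drug dose matrices for 72 hours. Viability came from CellTiter-Glo 2.0 luminescence and was scaled as inhibition, anchored at 0 by vehicle wells and at 1 by blank wells. Combination Emax is taken as the second-highest inhibition in the matrix, and Bliss excess as the observed combination effect less EA + EB − EA·EB, with EA and EB the single-agent effects.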

The subject of assay [2] is Daudi (Burkitt's Lymphoma). A digest of the protocol:
as §1

The test system of assay [3] is NCI-H1975 (Lung Adenocarcinoma). The method in brief:
as §1

Assay [4] relates to NCI-H1648 (Lung Adenocarcinoma). A digest of the protocol: as §1
Assay [5] relates to JJN-3 (Plasma Cell Myeloma). The method in brief: as §1
In assay [6] the test system is COR-L105 (Lung Adenocarcinoma). The method in brief: as §1
A further assay deals with SK-N-DZ (Neuroblastoma). A digest of the protocol:
as §1

In assay [7] the test system is NCI-H1944 (Lung Adenocarcinoma). The method in brief: as §1
In assay [8] the test system is BC-1 (B-Cell Non-Hodgkin's Lymphoma). The method in brief: as §1
Assay [9] relates to C2BBe1 (Colorectal Carcinoma). The method in brief: as §1
Assay [10] concerns RPMI-8402 (T-Lymphoblastic Leukemia). A digest of the protocol:
as §1

Assay [11] deals with MRK-nu-1 (Breast Carcinoma). A digest of the protocol:
as §1

In assay [12] the test system is HT-3 (Cervical Carcinoma). A digest of the protocol:
as §1

Assay [13] relates to NCI-H2009 (Lung Adenocarcinoma). The method in brief: as §1
Assay [14] has as its system ATN-1 (T-Lymphoblastic Leukemia). A digest of the protocol: as §1
For assay [15], the system named is GRANTA-519 (B-Cell Non-Hodgkin's Lymphoma). The method in brief: as §1
For assay [16], the system named is L-363 (Plasma Cell Myeloma). The method in brief:
as §1

Assay [17] deals with SBC-3 (Small Cell Lung Carcinoma). A digest of the protocol:
as §1

A further assay deals with NCI-H2452 (Mesothelioma). A digest of the protocol: as §1
Assay [18] relates to SUP-HD1 (Hodgkin's Lymphoma). A digest of the protocol:
as §1

The structures appear in SMILES notation.

For `COc1cccc(OCCCN)c1-c1cc(Nc2cnc(C#N)cn2)n[nH]1` [Prexasertib] + C=CCn1c(=O)c2cnc(Nc3ccc(N4CCN(C)CC4)cc3)nc2n1-c1cccc(C(C)(C)O)n1 [AZD1775] (first compound max 1 µM, partner max 1 µM), the Bliss excess worked out at 0.0356 in [1]; 0.0677 in assay [2]; 0.0404 in [3]; 0.0286 in [4]; 0.085 in assay [5]; 0.0157 in assay [6]. Further, the Bliss excess stood at 0.0202 with SK-N-DZ (Neuroblastoma); 0.077 in assay [7]; 0.0168 in assay [8]; 0.0545 in assay [9]; 0.0389 in assay [10]; 0.211 in [11]. Moreover, the Bliss excess was 0.159 in assay [12]; 0.0914 in assay [13]; 0.0134 in assay [14]; -0.0138 in assay [15]; 0.0204 in assay [16]; 0.146 in assay [17]. Also, the figures for the Bliss excess (with NCI-H2452 (Mesothelioma); in assay [18]) were 0.0473 and 0.0009, respectively.

Turning to `CN(C)CCCOc1ccc(-c2ccc3ncc4c(c3c2)n(C2CCOCC2)c(=O)n4C)cn1` [AZD0156] + CCN(CCO)CCCOc1ccc2c(Nc3cc(CC(=O)Nc4cccc(F)c4)[nH]n3)ncnc2c1 [AZD2811] (first compound max 1 µM, 7x7, partner max 1 µM), the Bliss excess in assay [1] was 0.0184; in [2], 0.107; in assay [3], 0.0049; in assay [4], -0.0327; in assay [5] it was 0.09; in assay [6] it was -0.0457. Besides, the Bliss excess with SK-N-DZ (Neuroblastoma) was 0.0526; in assay [7] it was -0.0077; in assay [8], 0.0234; in [9] it was -0.0183; in assay [10], -0.0022; in assay [11], 0.0186. For the same compound, the Bliss excess in assay [12] was -0.039; in assay [13] it was -0.0224; in assay [14], -0.0742; in assay [15] it was 0.0447; in assay [16], 0.0096; in [17], -0.0422. Moreover, the Bliss excess in the assay on NCI-H2452 (Mesothelioma) was -0.042; in assay [18], 0.0327.

Take `CC1(C)CCC(CN2CCN(c3ccc(C(=O)NS(=O)(=O)c4ccc(NCC5CCOCC5)c([N+](=O)[O-])c4)c(Oc4cnc5[nH]ccc5c4)c3)CC2)=C(c2ccc(Cl)cc2)C1` [Venetoclax] + CN(C)CCCOc1ccc(-c2ccc3ncc4c(c3c2)n(C2CCOCC2)c(=O)n4C)cn1 [AZD0156] (first compound max 1 µM, 7x7, partner max 1 µM): the Bliss excess in assay [1] is 0.011; in assay [2], -0.0194; in assay [3], -0.0611; in [4], -0.0685; in assay [5] it was 0.0008; in assay [6], -0.0408. For the same compound, the Bliss excess in the assay on SK-N-DZ (Neuroblastoma) was 0.013; in assay [7], -0.0052; in assay [8] it was 0.0066; in assay [9], -0.0333; in [10], 0.0022; in assay [11], 0.0046. Moreover, the Bliss excess in assay [12] is -0.0423; in assay [13], -0.0283; in assay [14] it was 0.0437; in assay [15] it was 0.0334; in assay [16], 0.0188; in [17] it was -0.0369. In addition, the values for the Bliss excess (in the assay on NCI-H2452 (Mesothelioma); in assay [18]) were -0.0149 and -0.0962, respectively.

Consider `COc1nnc2ccc(N3CCC(c4ccc(OCCN5CCN(C)C(=O)[C@H]5C)cc4)CC3)nn12` [AZD5153] + CCN(CCO)CCCOc1ccc2c(Nc3cc(CC(=O)Nc4cccc(F)c4)[nH]n3)ncnc2c1 [AZD2811] (first compound max 1 µM, 7x7, partner max 1 µM), for which the Bliss excess is -0.0286 in assay [1]; 0.0303 in [2]; -0.005 in assay [3]; -0.0494 in [4]; 0.0098 in assay [5]; -0.0092 in [6]. Moreover, the Bliss excess in the assay with SK-N-DZ (Neuroblastoma) is -0.0722; in [7], -0.0185; in assay [8], -0.0313; in assay [9], -0.0364; in assay [10], -0.031; in [11] it was 0.0096. In addition, the Bliss excess in assay [12] was -0.0644; in [13] it was -0.0155; in assay [14] it was -0.127; in [15] it was 0.0771; in assay [16], -0.0259; in [17] it was -0.0225. The Bliss excess with NCI-H2452 (Mesothelioma) was -0.0574; in assay [18], -0.0586.

Consider `CC1(C)CCC(CN2CCN(c3ccc(C(=O)NS(=O)(=O)c4ccc(NCC5CCOCC5)c([N+](=O)[O-])c4)c(Oc4cnc5[nH]ccc5c4)c3)CC2)=C(c2ccc(Cl)cc2)C1` [Venetoclax] + Cn1cnc2c(F)c(Nc3ccc(Br)cc3Cl)c(C(=O)NOCCO)cc21 [Selumetinib] (first compound max 1 µM, 7x7, partner max 3 µM), for which the Bliss excess is -0.0096 in assay [1]; -0.0208 in [2]; -0.0631 in assay [3]; -0.0379 in assay [4]; 0.0473 in assay [5]; -0.0491 in [6]. For the same compound, the Bliss excess was -0.0156 in the assay with SK-N-DZ (Neuroblastoma); -0.0356 in assay [7]; 0.0211 in assay [8]; -0.102 in assay [9]; -0.031 in [10]; -0.0139 in [11]. For the same compound, the Bliss excess was -0.0218 in assay [12]; -0.024 in [13]; -0.0324 in [14]; -0.03 in assay [15]; 0.0023 in assay [16]; -0.032 in assay [17]. For the same compound, the Bliss excess with NCI-H2452 (Mesothelioma) is -0.0501; in [18] it was -0.039.

Regarding `Cn1cnc2c(F)c(Nc3ccc(Br)cc3Cl)c(C(=O)NOCCO)cc21` [Selumetinib] + C=CCn1c(=O)c2cnc(Nc3ccc(N4CCN(C)CC4)cc3)nc2n1-c1cccc(C(C)(C)O)n1 [AZD1775] (first compound max 10 µM, partner max 1 µM), the Bliss excess is -0.022 in assay [1]; -0.0995 in assay [2]; -0.0318 in assay [3]; -0.0704 in assay [4]; -0.0188 in assay [5]; 0.0203 in assay [6]. For the same compound, the Bliss excess is -0.022 in the assay with SK-N-DZ (Neuroblastoma); -0.0481 in assay [7]; 0.0569 in assay [8]; -0.0398 in assay [9]; -0.0344 in [10]; -0.0289 in assay [11]. The Bliss excess in [12] is -0.0009; in [13], 0.0308; in [14], -0.0253; in assay [15], 0.03; in [16], -0.0042; in assay [17] it was -0.0655. The Bliss excess in the assay on NCI-H2452 (Mesothelioma) is -0.0288; in [18] it was -0.0188.

Consider `CC(=O)Nc1cccc(-n2c(=O)n(C3CC3)c(=O)c3c(Nc4ccc(I)cc4F)n(C)c(=O)c(C)c32)c1` [Trametinib] + Cc1nc(-c2cn3c(n2)-c2ccc(-c4cnn(C(C)(C)C(N)=O)c4)cc2OCC3)n(C(C)C)n1 [Taselisib] (first compound max 1 µM, 7x7, partner max 10 µM), for which the Bliss excess in assay [1] is 0.192; in assay [2], 0.0217; in assay [3] it was 0.177; in assay [4] it was 0.0655; in assay [5] it was 0.204; in assay [6], 0.0409. The Bliss excess came to 0.0954 in the assay with SK-N-DZ (Neuroblastoma); 0.175 in [7]; 0.149 in assay [8]; 0.0464 in assay [9]; 0.0185 in [10]; 0.0116 in [11]. In addition, the Bliss excess in [12] is 0.12; in assay [13] it was 0.151; in [14] it was -0.0503; in assay [15] it was -0.0007; in [16], 0.241; in assay [17] it was 0.0858. The Bliss excess was 0.101 in the assay on NCI-H2452 (Mesothelioma) and 0.0392 in assay [18].
